Experimental findings from patent publication US11478451B1, “Macrocyclic chlorine substituted indole derivatives” (Bayer Aktiengesellschaft, priority 2017, dated 2022) are described below.

Structures are written as SMILES. Read-outs that look alike come from different tables or passages of the source.

Series [1] has as its system SUDHL5 cells. Nature of the series: Induction of caspase-3/7 activity (Caspase-Glo 3/7), SUDHL5. Type of series: cell-based. Particulars: Homo sapiens, SU-DHL-5, 3 h, EC50, median; SUDHL5, 3 h treatment. The method, boiled down:
(§1)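 Read-out: Caspase-Glo 3/7 signal, background-corrected against medium-only wells, taken after cells had been incubated with compounds for 3 h at 37 °C.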

Series [2] has as its system SUDHL10 cells. Nature of the series: Induction of caspase-3/7 activity (Caspase-Glo 3/7), SUDHL10. Type of series: cell-based. The settings on record: Homo sapiens, SU-DHL10, 3 h, EC50, median; SUDHL10, 3 h treatment. The method, boiled down:
as §1

In series [3] the test system is SUDHL5 cells. Nature of the series: Antiproliferation assay (CellTiter-Glo, 72 h), SUDHL5. In kind it is cell-based. The settings on record: Homo sapiens, SU-DHL-5, 72 h, IC50, median; SUDHL5, 72 h; read-out: Antiproli SUDHL5 [M] (median). A digest of the protocol:
(§2)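 Treated cells sat 72 h in a humidified 37 °C incubator, outer wells unused, before CellTiter-Glo reagent and a 10 min wait preceded luminescence reading; identical measurement of a parallel day 0 plate defined time zero.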

The next series has as its system AMO-1 cells. In words: Antiproliferation assay (CellTiter-Glo, 72 h), AMO-1. In kind it is cell-based. The settings on record: Homo sapiens, AMO1, 72 h, IC50, median; AMO-1, 72 h; read-out: Antiproli AMO-1 [M] median. A digest of the protocol: as §2
The subject of a further series is HMC-1-8 cells. Nature of the series: Antiproliferation assay (CellTiter-Glo, 72 h), HMC-1-8. In kind it is cell-based. The settings on record: 72 h, IC50, median; HMC-1-8, 72 h; read-out: Antiproli HMC-1-8 [M] median. A digest of the protocol: as §2
In general terms: Cellular ATP, detected with luciferase, serves as a proxy for viable cell number.

The test system of series [4] is SUDHL5 cells. Nature of the series: Induction of cytotoxicity (CellTiter-Glo, 5 h), SUDHL5. The settings on record: Homo sapiens, SU-DHL-5, 5 h, read-out: Cytotox SUDHL5 [M] (median), IC50, median; SUDHL5, 5 h.
Series [5] deals with SUDHL10 cells. Nature of the series: Induction of cytotoxicity (CellTiter-Glo, 5 h), SUDHL10. The settings on record: Homo sapiens, SU-DHL10, 5 h, read-out: Cytotox SUDHL10 [M] (median), IC50, median; SUDHL10, 5 h.

For the compound `CCOC(=O)c1c(CCCO[Si](C)(C)C(C)(C)C)c2ccc(Cl)c3c2n1CCCCCCc1nn(C)c(CC)c1-3`, the ring closure, yield of all isomers (from CCOC(=O)c1[nH]c2c(-c3c(CCCCCCBr)nn(C)c3CC)c(Cl)ccc2c1CCCO[Si](C)(C)C(C)(C)C, amine bond, Cs2CO3, DMF, 71.8 mM) came to 99.5%.

The compound `CCOC(=O)c1c(CCCOc2cccc3cc(F)ccc23)c2ccc(Cl)c3c2n1CC(F)(F)CCN(S(=O)(=O)c1ccccc1[N+](=O)[O-])Cc1nn(C)c(CC)c1-3` came in with a ring closure, yield of all isomers (from CCOC(=O)c1[nH]c2c(-c3c(CN(CCC(F)(F)COS(=O)(=O)C(F)(F)F)S(=O)(=O)c4ccccc4[N+](=O)[O-])nn(C)c3CC)c(Cl)ccc2c1CCCOc1cccc2cc(F)ccc12, amine bond, NaH, DMF, 259.0 mM) of 41.3%.

For `CCOC(=O)c1c(CCCOc2cccc3cc(F)ccc23)c2ccc(Cl)c3c2n1CC(F)(F)CCOCc1nn(C)c(C)c1-3`, the ring closure, yield of all isomers (from CCOC(=O)c1[nH]c2c(-c3c(COCCC(F)(F)CO)nn(C)c3C)c(Cl)ccc2c1CCCOc1cccc2cc(F)ccc12, amine bond, triphenylphosphine / di-tert-butyl azodicarboxylate, THF, 32.0 h) came to 46.9%.

For `CCOC(=O)c1c(CCCOc2cccc3cc(F)ccc23)c2ccc(Cl)c3c2n1CC(F)(F)CCOCc1nn(C)c(CC)c1-3`, the ring closure, yield of all isomers (from CCOC(=O)c1[nH]c2c(-c3c(COCCC(F)(F)CO)nn(C)c3CC)c(Cl)ccc2c1CCCOc1cccc2cc(F)ccc12, amine bond, PPh3/di-tert-butyl azodicarboxylate (Mitsunobu), THF, 23.5 mM) is 81.9%.

In turn, `CCOC(=O)c1c(CCCOc2cccc3cc(F)ccc23)c2ccc(Cl)c3c2n1CCC(F)(F)COCc1nn(C)c(CC)c1-3` displayed a ring closure, yield of all isomers (from CCOC(=O)c1[nH]c2c(-c3c(COCC(F)(F)CCO)nn(C)c3CC)c(Cl)ccc2c1CCCOc1cccc2cc(F)ccc12, amine bond, triphenylphosphine / di-tert-butyl azodicarboxylate, THF) of 72.9%.

`CCOC(=O)c1c(CCCOc2cccc3cc(F)ccc23)c2ccc(Cl)c3c2n1CCC1(CC1)COCc1nn(C)c(CC)c1-3` yielded a ring closure, yield of all isomers (from CCOC(=O)c1[nH]c2c(-c3c(COCC4(CCO)CC4)nn(C)c3CC)c(Cl)ccc2c1CCCOc1cccc2cc(F)ccc12, amine bond, PPh3/di-tert-butyl azodicarboxylate (Mitsunobu), THF, 83.2 mM) of 86.6%.

Under “from CCOC(=O)c1c(CCCOc2cccc3cc(F)ccc23)c2ccc(Cl)c(-c3c(CBr)nn(C)c3CC)c2n1CCCCNC, amine bond, cesium carbonate, DMF, 214.0 mM, 60.0 °C”, `CCOC(=O)c1c(CCCOc2cccc3cc(F)ccc23)c2ccc(Cl)c3c2n1CCCCN(C)Cc1nn(C)c(CC)c1-3` displayed a ring closure, yield of all isomers of 22%.

With `CCOC(=O)c1c(CCCOc2cccc3cc(F)ccc23)c2ccc(Cl)c3c2n1CCCCNCc1nn(C)c(C)c1-3`, the ring closure, yield of all isomers (from CCOC(=O)c1c(CCCOc2cccc3cc(F)ccc23)c2ccc(Cl)c(-c3c(CBr)nn(C)c3C)c2n1CCCCN, amine bond, Cs2CO3, DMF, 205.0 mM, 60.0 °C) came out at 6.6%.

As to `CCOC(=O)c1c(CCCOc2cccc3cc(F)ccc23)c2ccc(Cl)c3c2n1CCN(S(=O)(=O)c1ccccc1[N+](=O)[O-])CCCc1nn(C)c(CC)c1-3`, the ring closure, yield of all isomers (from CCOC(=O)c1[nH]c2c(-c3c(CCCN(CCOS(C)(=O)=O)S(=O)(=O)c4ccccc4[N+](=O)[O-])nn(C)c3CC)c(Cl)ccc2c1CCCOc1cccc2cc(F)ccc12, amine bond, NaH, DMF, 56.65 mM, 40.0 °C) came to 70.4%.

Consider `CCOC(=O)c1c(CCCOc2cccc3ccccc23)c2ccc(Cl)c3c2n1CC(F)(F)C(F)(F)COCc1nn(C)c(C)c1-3`, for which the ring closure, yield of all isomers (from CCOC(=O)c1[nH]c2c(-c3c(COCC(F)(F)C(F)(F)COS(C)(=O)=O)nn(C)c3C)c(Cl)ccc2c1CCCOc1cccc2ccccc12, amine bond, Cs2CO3, DMF, 2.12 mM) turned out to be 7.6%.

`CCOC(=O)c1c(CCCOc2cccc3ccccc23)c2ccc(Cl)c3c2n1CCC1(CC1)COCc1nn(C)c(CC)c1-3`: the ring closure, yield of all isomers (from CCOC(=O)c1[nH]c2c(-c3c(COCC4(CCO)CC4)nn(C)c3CC)c(Cl)ccc2c1CCCOc1cccc2ccccc12, amine bond, triphenylphosphine / diisopropyl azodicarboxylate, THF, 98.3 mM) amounted to 87.9%.

For `CCOC(=O)c1c(CCCOc2cccc3ccccc23)c2ccc(Cl)c3c2n1C[C@@H]1CC[C@@H]1COCc1nn(C)c(C)c1-3`, the ring closure, yield of all isomers (from CCOC(=O)c1[nH]c2c(-c3c(COC[C@H]4CC[C@H]4CO)nn(C)c3C)c(Cl)ccc2c1CCCOc1cccc2ccccc12, amine bond, PPh3/di-tert-butyl azodicarboxylate, THF, 14.5 mM) came to 34.5%.

One may read the EC50 as the concentration that produces a half-maximal response. Low readings indicate greater potency, high ones weaker potency. In turn, `CCc1c2c(nn1C)CCCOCCn1c(C(=O)O)c(CCCOc3cccc4cc(F)ccc34)c3ccc(Cl)c-2c31` (racemic) [Example 124, (rac)-4-chloro-3-ethyl-7-{3-[(6-fluoro-1-naphthyl)oxy]propyl}-2-methyl-2,10,11,13,14,15-hexahydropyrazolo[4′,3′:7,8][1,4]oxazacycloundecino[6,5,4-hi]indole-8-carboxylic acid] displayed a ring closure, yield of all isomers (from CCOC(=O)c1[nH]c2c(-c3c(CCCOCCO)nn(C)c3CC)c(Cl)ccc2c1CCCOc1cccc2cc(F)ccc12, amine bond, NaH, DMF, 47.5 mM, 40.0 °C, 3 steps) of 63.1%. For the same compound, the EC50 in the series with SUDHL5 cells [1] worked out at 950 nM; in the series on SUDHL10 cells [2] it was 1800 nM. The IC50 stood at 4.4e-06 M in the series with SUDHL5 cells [3]; 8.3e-07 M with AMO-1 cells; 7e-06 M with HMC-1-8 cells; 1.1e-06 M in the series with SUDHL5 cells [4]; 2.4e-06 M with SUDHL10 cells [5].

Where the note is “from CCOC(=O)c1[nH]c2c(-c3c(COC[C@H]4C[C@H]4CO)nn(C)c3CC)c(Cl)ccc2c1CCCOc1cccc2cc(F)ccc12, amine bond, PPh3/di-tert-butyl azodicarboxylate (Mitsunobu), THF, 24.7 mM”, `CCOC(=O)c1c(CCCOc2cccc3cc(F)ccc23)c2ccc(Cl)c3c2n1C[C@@H]1C[C@@H]1COCc1nn(C)c(CC)c1-3` (single isomer, unassigned) showed a ring closure, yield of all isomers of 84.6%.

In turn, `CCc1nn(C)c2c1-c1c(Cl)ccc3c(CCCOc4cccc5cc(F)ccc45)c(C(=O)O)n(c13)CCOCCC2` [Example 125, (rac)-4-chloro-3-ethyl-7-{3-[(6-fluoro-1-naphthyl)oxy]propyl}-1-methyl-1,10,11,13,14,15-hexahydropyrazolo[4′,3′:7,8][1,4]oxazacycloundecino[6,5,4-hi]indole-8-carboxylic acid] yielded a ring closure, yield of all isomers (from CCOC(=O)c1[nH]c2c(-c3c(CC)nn(C)c3CCCOCCO)c(Cl)ccc2c1CCCOc1cccc2cc(F)ccc12, amine bond, NaH, DMF, 55.64 mM, 40.0 °C, 3 steps) of 76.1%. Besides, the EC50 with SUDHL5 cells [1] came to 1400 nM; with SUDHL10 cells [2] it was 4600 nM. Moreover, the IC50 was 7.9e-06 M in the series on SUDHL5 cells [3], 1.9e-06 M in the series on AMO-1 cells, 1.3e-06 M in the series on SUDHL5 cells [4] and 5.4e-06 M in the series with SUDHL10 cells [5].

`CCc1c2c(nn1C)CN(C(=O)OCCOC)CCCCn1c(C(=O)O)c(CCCOc3cccc4cc(F)ccc34)c3ccc(Cl)c-2c31` [Example 134, (rac)-4-chloro-3-ethyl-7-{3-[(6-fluoronaphthalen-1-yl)oxy]propyl}-14-[(2-methoxyethoxy)carbonyl]-2-methyl-10,11,12,13,14,15-hexahydro-2H-pyrazolo[3′,4′:8,9][1,6]diazacycloundecino[10,11,1-hi]indole-8-carboxylic acid]: the EC50 was 130 nM in the series with SUDHL5 cells [1] and 240 nM in the series with SUDHL10 cells [2]. In addition, the IC50 with SUDHL5 cells [3] came out at 2.3e-07 M; in the series with AMO-1 cells, 3.4e-07 M; with HMC-1-8 cells it was 2.1e-06 M; in the series with SUDHL5 cells [4] it was 1.8e-07 M; in the series with SUDHL10 cells [5], 3.4e-07 M.

As for `CCc1c2c(nn1C)CN(C(=O)OCCC1CCOCC1)CCCCn1c(C(=O)O)c(CCCOc3cccc4cc(F)ccc34)c3ccc(Cl)c-2c31` [Example 138, (rac)-4-chloro-3-ethyl-7-{3-[(6-fluoronaphthalen-1-yl)oxy]propyl}-2-methyl-14-{[2-(oxan-4-yl)ethoxy]carbonyl}-10,11,12,13,14,15-hexahydro-2H-pyrazolo[3′,4′:8,9][1,6]diazacycloundecino[10,11,1-hi]indole-8-carboxylic acid], the results for the EC50 in the series on SUDHL5 cells [1] and in the series on SUDHL10 cells [2] were 280 nM and 380 nM, respectively. Further, the IC50 in the series on SUDHL5 cells [3] is 3.5e-07 M; with AMO-1 cells, 4.7e-07 M; in the series with HMC-1-8 cells, 3e-06 M; with SUDHL5 cells [4] it was 2.4e-07 M; in the series on SUDHL10 cells [5] it was 6e-07 M.
